Laboratory results: patent US20210023209A1, “ANTIGENIC PEPTIDES DERIVING FROM PCSK2 AND USES THEREOF FOR THE DIAGNOSIS AND TREATMENT OF TYPE 1 DIABETES” (INSERM (INSTITUT NATIONAL DE LA SANTÉ ET DE LA RECHERCHE …, priority 2018, published 2021)
Residues, ends and D or L forms follow the SMILES beside them.

What was measured:
[1] = test system: circulating CD8^+ T cells; assay: ex-vivo combinatorial HLA-A2 MMr assay on PBMCs; format: cell-based, human; details: for cognate naïve CD8^+ T-cell repertoire (validation of candidate epitope): frequency 1-50/10^6 CD8^+ T cells, clustered MMr staining, ≥50% of individuals; for median frequency in peripheral blood: T1D patients; for frequency of MMr^+ CD8^+ T cells, in words: HLA-A2^+ recent-onset T1D and healthy subjects
[2] = test system: islet-infiltrating CD8+ T cells of NOD mice; assay: IFN-γ recall assay of islet-infiltrating cells against peptide-pulsed K^d+ L cells; format: cell-based; details: for positive mice (number/tested) / positive mice, percentage: 12-16-week-old NOD females, positive = IFN-γ^+CD8^+ cells >1.8%; for median percentage of IFN-γ^+CD8^+ cells / positive range of percentage of IFN-γ^+CD8^+ cells: 6 h peptide recall with brefeldin-A, intracellular IFN-γ staining
Text: Peptides predicted to be restricted by the murine MHC Class I K^d molecule were identified using prediction algorithms and scanning of the whole murine protein sequence. Peptides were first tested in pools, and positive pools subsequently deconvoluted for reactivity against individual peptides. To this end, islets were isolated from 12-16-week-old NOD mice by collagenase digestion and put in culture with recombinant human IL-2 (Proleukin, Novartis) for 5 days as described (Brezar et al, Eur J Immunol 2012). Cells exiting the islets were subsequently collected and subjected to recall assays against K^d+ L antigen-presenting cells pulsed with the indicated peptides for 6 h in the presence of brefeldin-A, followed by intracellular staining for IFN-γ. The TUM, Ins B15-23 and IGRP 206-214 peptides were included as negative control and positive controls, respectively.
We performed experiments in 12-16-week-old NOD females by analyzing the reactivity of islet-infiltrating CD8^+ T cells to peptides derived from murine Ucn3 and Pcsk2 and predicted to be restricted by the murine MHC molecule K^d. A positive response was defined as a percentage of IFN-γ^+CD8^+ cells >1.8%, which was the median response observed for the negative control TUM peptide.

[3] = test system: pancreas-infiltrating cells of HLA-A2^+ T1D patients; assay: in-situ HLA-A2 MMr staining on pancreas sections; format: cell-based, human; details: 2 HLA-A2^+ T1D cases, nPOD tissue sections
Protocol: In-situ staining was performed as described (Culina et al., 2018). Unfixed, frozen sections were dried for 2 h, loaded with 1 μg of MMrs overnight at 4° C., washed gently with phosphate-buffered saline and fixed in 2% paraformaldehyde for 10 min. After a further wash, endogenous peroxidase activity was blocked with 0.3% H2O2. Sections were then incubated serially with rabbit anti-phycoerythrin, horseradish peroxidase-conjugated swine anti-rabbit and 3,3′-diaminobenzidine tetrahydrochloride substrate (ThermoFisher). After a final wash, sections were counterstained with hematoxylin, dehydrated via sequential passages in 95-100% ethanol and xylene, mounted and analyzed using a Nikon Eclipse Ni microscope with NIS-Elements Analysis D software v4.40.

HLA-A*02:01 [4] = molecular target: T1, HLA-A*02:01 (human); assay: one of the 18 HLA-eluted peptides with verified HLA-A2 binding; loaded on HLA-A2 multimers
T1 construct: HLA-A2 multimers were produced as in Leisner et al. 2008; also called HLA-A2; A2

HLA-A*02:01 [5] = molecular target: T1, HLA-A*02:01; assay: LC-MS/MS of peptides eluted from W6/32-purified pHLA Class I complexes of beta cells; the HLA-A2 restriction in this row is predicted
Protocol: The HLA class I peptidome of the ECN90 β-cell line was obtained from 5 biological replicates. A single biological replicate was available for primary human islets. […] Beads were subsequently loaded on GELoader Tips (20 μl; ThermoFisher) and washed before elution of pHLA complexes with 10% acetic acid.
Eluted peptides and the associated HLA Class I heavy chain and β2-microglobulin obtained from 20×10⁶ cells were concentrated to 20 μl by vacuum centrifugation, acidified with 10 μl of 1% aqueous formic acid (Normapur) and loaded on C18 stage tips (ThermoFisher) prewashed with 100% methanol and equilibrated with acetonitrile (ACN)/0.1% formic acid in LC-MS grade water (aq. formic acid) 2:98 (v/v). After loading, the C18 stage tips were washed with ACN/0.1% aq. formic acid 2:98 (v/v) and peptides separated from the more hydrophobic HLA Class I heavy chain and β2-microglobulin species by eluting them with ACN/0.1% aq. formic acid 1:1 (v/v). […] For MS analysis, 5 μl of this peptide solution were used.
Peptides were loaded and separated by nanoflow HPLC (RSLC Ultimate 3000, ThermoFisher Scientific) on a reversed phase nanocolumn (C18 Acclaim PepMap 100, 50 cm length, 75 μm i.d. ThermoFisher Scientific) coupled on-line to a nanoESI Q Exactive mass spectrometer (ThermoFisher Scientific).

| Molecule | cognate naïve CD8^+ T-cell repertoire (validation of candidate epitope) ([1]; HLA-A2^+ healthy donors) | positive mice (number/tested) [2] | positive mice, percentage [2] [%] | median percentage of IFN-γ^+CD8^+ cells [2] [%] | positive range of percentage of IFN-γ^+CD8^+ cells [2] | other results |
| --- | --- | --- | --- | --- | --- | --- |
| CC(C)C[C@H](NC(=O)[C@H](CCC(=O)O)NC(=O)[C@@H](NC(=O)[C@H](CC(C)C)NC(=O)[C@H](Cc1ccccc1)NC(=O)[C@H](Cc1c[nH]cn1)NC(=O)[C@H](CC(N)=O)NC(=O)[C@@H](NC(=O)[C@@H](N)Cc1ccccc1)[C@@H](C)O)C(C)C)C(=O)O (H-FTNHFLVEL-OH; N-terminus and C-terminus assumed) | validated | – | – | – | – | – |
| CHGA344-352: HLA-eluted HLA-A2-restricted chromogranin A peptide (KMDQLAKEL) | validated | – | – | – | – | – |
| GYRDINEIDI [Pcsk2 109-118, peptide derived from murine Pcsk2, predicted to be restricted by K^d] | – | 6/8 | 50 | 1.8 | 1.9-4.3% | – |
| IAPP15-17/IAPP5-10: peptide splice product from fusion of IAPP15-17/IAPP5-10 (VALKLQVFL) | – | – | – | – | – | in-situ MMr staining of pancreas sections [3]: MMr^+ cells could be detected; donors with recognition ([1]; HLA-A2^+ healthy donors, screening): 1 of 6; median frequency in peripheral blood [1]: 1.6×10^−6 |
| IGRP 206-214: positive control peptide in NOD recall assay (VYLKTNVFL; UniProt Q9Z186 206-214, looked up, fragment) [reference compound] | – | 13/13 | 100 | 12.5 | 4.5-25.3% | – |
| ISL1276-284: HLA-eluted HLA-A2-restricted peptide of insulin gene enhancer protein ISL1 (GLQANPVEV) | validated | – | – | – | – | in-situ MMr staining of pancreas sections [3]: MMr^+ cells could be detected; median frequency in peripheral blood [1]: 7.2×10^−6 |
| KCNK16129-137: HLA-eluted HLA-A2-restricted KCNK16 peptide (ALLGIPLNV) | validated | – | – | – | – | – |
| KIF1A1347-1355: HLA-eluted HLA-A2-restricted Kinesin Family Member 1A peptide (VLDTSVAYV) | validated | – | – | – | – | – |
| LYDESCSSTL [Pcsk2 341-350, peptide derived from murine Pcsk2, predicted to be restricted by K^d] | – | 6/8 | 75 | 3.3 | 1.9-5.2% | – |
| RYLEHVQAVI [Pcsk2 501-510, peptide derived from murine Pcsk2, predicted to be restricted by K^d] | – | 5/8 | 63 | 2.7 | 2.1-8.0% | – |
| SCG5-009186-194: HLA-eluted peptide from SCG5-009 mRNA splice variant (FLSGAVNRL) | validated | – | – | – | – | frequency of MMr^+ CD8^+ T cells, in words [1]: particularly high and clustered |
| SCG5186-195: HLA-eluted HLA-A2-restricted SCG5 (7B2) peptide (YLQGQRLDNV) | validated | – | – | – | – | – |
| TYFLLPLLL [Ucn3 5-13, peptide derived from murine Ucn3, predicted to be restricted by K^d] | – | 8/12 | 67 | 2.3 | 2.1-8.6% | – |
| UCN31-9: HLA-eluted HLA-A2-restricted urocortin-3 peptide (MLMPVHFLL) | validated | – | – | – | – | frequency of MMr^+ CD8^+ T cells, in words [1]: particularly high and clustered |
| VFSCLNTAL [Ucn3 32-40, peptide derived from murine Ucn3, predicted to be restricted by K^d] | – | 8/12 | 67 | 1.9 | 1.9-3.3% | – |
| ZnT8186-184: positive control islet peptide (VAANIVLTV; UniProt Q8IWU4 186-194, looked up, fragment) [reference compound] | – | – | – | – | – | in-situ MMr staining of pancreas sections [3]: MMr^+ cells could be detected |
| GLQANPVEV (peptide, UniProt P61371 276-284, looked up, range 276-284; Synthetic peptide) [insulin gene enhancer protein ISL1 276-284 peptide] | – | – | – | – | – | binding result (HLA-A*02:01 [4]): binds |
| ALLGIPLNV (peptide, UniProt Q96T55 129-137, looked up, range 129-137; Synthetic peptide) [KCNK16 129-137 peptide] | – | – | – | – | – | binding result (HLA-A*02:01 [4]): binds |
| FTNHFLVEL [PCSK2 30-38 peptide (FTNHFLVEL)] | – | – | – | – | – | binding result (HLA-A*02:01 [5]): binds |
